Data on 15 molecules can be found in US11746098B2, “Proteasome activity enhancing compounds” (Proteostasis Therapeutics, Inc., priority 2018, dated 2023).

Molecules are shown by their SMILES. Where only a bound is given, the exact number is not on record here.

The IC50 is the concentration at which inhibition is half-maximal.

For the test, the target named is USP14 (Homo sapiens, UniProt P54578). Description: USP14 Inhibition Assay. The format is biochemical. The following applies: average value from a minimum of two experimental determinations, read-out: IC50 Category. The source says:
The activity of the compound described herein to inhibit USP14 can be measured using previously described methodology [B. H. Lee et al. Nature 2010, 467 (9), 179, the contents of which are expressly incorporated by reference herein].
Example 6: USP14 Inhibition Assay
`Cc1cc(C(=O)CN2CCC(O)CC2)c(C)n1-c1ccc(C(F)(F)F)cc1` [Compound 21, 1-(2,5-Dimethyl-1-(4-(trifluoromethyl)phenyl)-1H-pyrrol-3-yl)-2-(4-hydroxypiperidin-1-yl)ethanone]: the IC50 was above 5 µM.
`Cc1cc(C(=O)CN2CCCC(CN)C2)c(C)n1-c1ccc(C#N)cc1` (stereo not drawn) [Compound 159, 4-(3-(2-(3-(Aminomethyl)piperidin-1-yl)acetyl)-2,5-dimethyl-1H-pyrrol-1-yl)benzonitrile]: the IC50 is below 0.5 µM.
The figure for `Cc1cc(C(=O)CN2CCC(O)CC2)c(C)n1C1CCC1` [Compound 36, 1-(1-Cyclobutyl-2,5-dimethyl-1H-pyrrol-3-yl)-2-(4-hydroxypiperidin-1-yl)ethanone] is above 5 µM; for `COc1cc(NS(=O)(=O)c2ccc(-n3c(C)cc(C(=O)CN4CCCCC4)c3C)cc2)nc(OC)n1` [Compound 1, N-(2,6-Dimethoxypyrimidin-4-yl)-4-(2,5-dimethyl-3-(2-(piperidin-1-yl)acetyl)-1H-pyrrol-1-yl)benzenesulfonamide] it is above 5 µM; for `Cc1cc(C(=O)CN2CCC(C(=O)O)CC2)c(C)n1-c1ccc(Cl)cc1` [Compound 25, 1-(2-(1-(4-Chlorophenyl)-2,5-dimethyl-1H-pyrrol-3-yl)-2-oxoethyl)piperidine-4-carboxylic acid] it is above 5 µM.
The figure for `Cc1cc(C(=O)CN2CCC(CNC(=O)OC(C)(C)C)CC2)c(C)n1-c1ccc(C#N)cc1` [Compound 135, tert-butyl ((1-(2-(1-(4-Cyanophenyl)-2,5-dimethyl-1H-pyrrol-3-yl)-2-oxoethyl)piperidin-4-yl)methyl)carbamate] is 0.5 to 5 µM; for `CCc1ccc(C(=O)CN2CCCCC2)n1-c1ccc(C#N)cc1` [Compound 112, 4-(2-Ethyl-5-(2-(piperidin-1-yl)acetyl)-1H-pyrrol-1-yl)benzonitrile] it is above 5 µM.
Turning to `Cc1cc(C=O)c(C)n1-c1ccc(Cl)cc1` [Compound 100, 1-(4-Chlorophenyl)-2,5-dimethyl-1H-pyrrole-3-carbaldehyde], the IC50 is above 5 µM.
The figure for `Cc1cc(Cl)cc(C)c1-n1cccc1C(=O)CN1CCCCC1` [Compound 27, 1-(1-(4-Chloro-2,6-dimethylphenyl)-1H-pyrrol-2-yl)-2-(piperidin-1-yl)ethanone] is above 5 µM; for `Cc1cc(C(=O)CNCC(O)CO)c(C)n1-c1ccc(C#N)cc1` (stereo not drawn) [Compound 134, 4-(3-(2-((2,3-Dihydroxypropyl)amino)acetyl)-2,5-dimethyl-1H-pyrrol-1-yl)benzonitrile] it is 0.5 to 5 µM; for `Cc1cc(Cl)cc(C)c1-n1ccc(C(=O)CN2CCC(O)CC2)c1` [Compound 24, 1-(1-(4-Chloro-2,6-dimethylphenyl)-1H-pyrrol-3-yl)-2-(4-hydroxypiperidin-1-yl)ethanone] it is above 5 µM.
The figure for `Cc1cc(C(=O)CN2CCCC2)c(C)n1-c1cc(F)cc(F)c1` [Compound 22, 1-(1-(3,5-Difluorophenyl)-2,5-dimethyl-1H-pyrrol-3-yl)-2-(pyrrolidin-1-yl)ethanone] is above 5 µM; for `Cc1cc(C(=O)CN2CCCCC2)c(C)n1-c1ccc(C#N)cc1` [Compound 81, 4-(2,5-Dimethyl-3-(2-(piperidin-1-yl)acetyl)-1H-pyrrol-1-yl)benzonitrile] it is below 0.5 µM; for `COc1ccc(-n2c(C)cc(C(=O)CN3CCC(O)CC3)c2C)cc1F` [Compound 64, 1-(1-(3-Fluoro-4-methoxyphenyl)-2,5-dimethyl-1H-pyrrol-3-yl)-2-(4-hydroxypiperidin-1-yl)ethanone] it is 0.5 to 5 µM.
Turning to `Cc1cc(C(=O)CN2CCC(OCC(=O)N3CCCCC3)CC2)c(C)n1-c1ccc(Cl)cc1` [Compound 80, 1-(1-(4-Chlorophenyl)-2,5-dimethyl-1H-pyrrol-3-yl)-2-(4-(2-oxo-2-(piperidin-1-yl)ethoxy)piperidin-1-yl)ethanone], the IC50 was below 0.5 µM.
